Tests used:
Format in all cases: in vivo
[1] = system: giant foxtail (Setaria faberii); experiment: Test A postemergence; details: Setaria faberi, post-emergence, 240 h, 0 to 100 scale, read-out: Plant response rating, Foxtail, Giant
Method in brief: (§1)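 Greenhouse pot test, loam/sand soil. Formulation: non-phytotoxic solvent mix plus surfactant. Pre: directed spray onto soil after sowing. Post: plants at 1–2 leaf, 2–10 cm. Rated visually vs untreated controls at ~10 d, 0 (no effect) to 100 (complete control).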

kochia (Kochia scoparia) [2] = experiment: Test A postemergence; details: Bassia scoparia, post-emergence, 240 h, 0 to 100 scale, read-out: Plant response rating, Kochia
Method in brief: as §1

corn (Zea mays) = experiment: Test A postemergence; details: Zea mays, post-emergence, 240 h, 0 to 100 scale
Method in brief: as §1

[3] = system: wheat (Triticum aestivum); experiment: Test A postemergence; details: Triticum aestivum, post-emergence, 240 h, 0 to 100 scale, read-out: Plant response rating, Wheat
Method in brief: as §1

[4] = system: ragweed (common ragweed, Ambrosia elatior); experiment: Test A postemergence; details: Ambrosia artemisiifolia, post-emergence, 240 h, 0 to 100 scale, read-out: Plant response rating, Ragweed
Method in brief: as §1

[5] = system: barnyardgrass (Echinochloa crus-galli); experiment: Test A postemergence; details: Echinochloa crus-galli, post-emergence, 240 h, 0 to 100 scale, read-out: Plant response rating, Barnyardgrass
Method in brief: as §1

[6] = system: galium (catchweed bedstraw, Galium aparine); experiment: Test A postemergence; details: Galium, post-emergence, 240 h, 0 to 100 scale, read-out: Plant response rating, Galium
Method in brief: as §1

[7] = system: Italian ryegrass (Lolium multiflorum); experiment: Test A postemergence; details: Lolium multiflorum, post-emergence, 240 h, 0 to 100 scale, read-out: Plant response rating, Ryegrass, Italian
Method in brief: as §1

[8] = system: blackgrass (Alopecurus myosuroides); experiment: Test A postemergence; details: Alopecurus myosuroides, post-emergence, 240 h, 0 to 100 scale, read-out: Plant response rating, Blackgrass
Method in brief: as §1

[9] = system: pigweed (Amaranthus retroflexus); experiment: Test A postemergence; details: Amaranthus retroflexus, post-emergence, 240 h, 0 to 100 scale, read-out: Plant response rating, Pigweed
Method in brief: as §1

[10] = system: giant foxtail (Setaria faberii); experiment: Test A preemergence; details: Setaria faberi, pre-emergence, 240 h, 0 to 100 scale (0 no effect, 100 complete control), read-out: Foxtail, Giant plant response rating
Method in brief: as §1

kochia (Kochia scoparia) [11] = experiment: Test A preemergence; details: Bassia scoparia, pre-emergence, 240 h, 0 to 100 scale (0 no effect, 100 complete control), read-out: Kochia plant response rating
Method in brief: as §1

[12] = system: ragweed (common ragweed, Ambrosia elatior); experiment: Test A preemergence; details: Ambrosia artemisiifolia, pre-emergence, 240 h, 0 to 100 scale (0 no effect, 100 complete control), read-out: Ragweed plant response rating
Method in brief: as §1

[13] = system: barnyardgrass (Echinochloa crus-galli); experiment: Test A preemergence; details: Echinochloa crus-galli, pre-emergence, 240 h
Method in brief: as §1

[14] = system: Italian ryegrass (Lolium multiflorum); experiment: Test A preemergence; details: Lolium multiflorum, pre-emergence, 240 h, 0 to 100 scale (0 no effect, 100 complete control), read-out: Ryegrass, Italian plant response rating
Method in brief: as §1

[15] = system: pigweed (Amaranthus retroflexus); experiment: Test A preemergence; details: Amaranthus retroflexus, pre-emergence, 240 h, 0 to 100 scale (0 no effect, 100 complete control), read-out: Pigweed plant response rating
Method in brief: as §1

[16] = system: giant foxtail (Setaria faberii); experiment: Test C postemergence; details: Setaria faberi, post-emergence, 336 h, Postemergence, scale 0 to 100, read-out: Plant response rating, Foxtail, Giant
Method in brief: (§2)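 Seeds sown in a loam soil and sand blend were treated preemergence; plants in peat-moss/vermiculite medium were sprayed at the 1- to 4-leaf stage (2-18 cm). Chemicals were in a non-phytotoxic surfactant-containing solvent. After 13 to 15 days in a greenhouse, injury was visually rated against controls on a 0-100 scale.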

[17] = system: morningglory (Ipomoea coccinea); experiment: Test C postemergence; details: Ipomoea, post-emergence, 336 h, Postemergence, scale 0 to 100, read-out: Plant response rating, Morningglory
Method in brief: as §2

[18] = system: galium (catchweed bedstraw, Galium aparine); experiment: Test C postemergence; details: Galium, post-emergence, 336 h, Postemergence, scale 0 to 100, read-out: Plant response rating, Galium
Method in brief: as §2

[19] = system: ducksalad (Heteranthera limosa); experiment: Test B flooded paddy; details: Heteranthera limosa, 336 h; 250 g ai/ha, Flood, 13 to 15 days, scale 0 (no effect) to 100 (complete control); read-out: Plant response rating, Ducksalad
Method in brief: (§3)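 Under a constant 3 cm flood, test compounds went directly into the paddy water. Following 13 to 15 days of greenhouse growth, treated species and controls were compared by eye.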

[20] = system: barnyardgrass (Echinochloa crus-galli); experiment: Test B flooded paddy; details: Echinochloa crus-galli, 336 h; 250 g ai/ha, Flood, 13 to 15 days, scale 0 (no effect) to 100 (complete control); read-out: Plant response rating, Barnyardgrass
Method in brief: as §3

[21] = system: sedge, umbrella (small-flower umbrella sedge, Cyperus difformis); experiment: Test B flooded paddy; details: Cyperus difformis, 336 h; 250 g ai/ha, Flood, 13 to 15 days, scale 0 (no effect) to 100 (complete control); read-out: Plant response rating, Sedge, Umbrella
Method in brief: as §3

rice (Oryza sativa) = experiment: Test B flooded paddy; details: Oryza sativa, 336 h; 250 g ai/ha, Flood, 13 to 15 days, scale 0 (no effect) to 100 (complete control); read-out: Plant response rating, Rice
Method in brief: as §3

Fc1ccc(F)c(Oc2ncc(Cl)cn2)c1Oc1ncc(Cl)cn1 [Compound 34, 2,2′-[(3,6-difluoro-1,2-phenylene)bis(oxy)]bis[5-chloropyrimidine]]
pest or weed control at 31 g/ha ([1]; 31 g ai/ha): 30%
pest or weed control at 125 g/ha ([1]; 125 g ai/ha): 70%
pest or weed control at 31 g/ha (kochia (Kochia scoparia) [2]; 31 g ai/ha): 50%
pest or weed control at 125 g/ha (kochia (Kochia scoparia) [2]; 125 g ai/ha): 70%
Corn plant response rating (crop injury, 0 = no effect, 100 = complete kill) at 31 g/ha (corn (Zea mays); 31 g ai/ha): 0%
Corn plant response rating (crop injury, 0 = no effect, 100 = complete kill) at 125 g/ha (corn (Zea mays); 125 g ai/ha): 10%
plant injury at 31 g/ha ([3]; 31 g ai/ha): 0%
plant injury at 125 g/ha ([3]; 125 g ai/ha): 30%
pest or weed control at 31 g/ha ([4]; 31 g ai/ha): 30%
pest or weed control at 125 g/ha ([4]; 125 g ai/ha): 50%
pest or weed control at 31 g/ha ([5]; 31 g ai/ha): 0%
pest or weed control at 125 g/ha ([5]; 125 g ai/ha): 50%
pest or weed control at 31 g/ha ([6]; 31 g ai/ha): 80%
pest or weed control at 125 g/ha ([6]; 125 g ai/ha): 90%
pest or weed control at 31 g/ha ([7]; 31 g ai/ha): 10%
pest or weed control at 125 g/ha ([7]; 125 g ai/ha): 50%
pest or weed control at 31 g/ha ([8]; 31 g ai/ha): 60%
pest or weed control at 125 g/ha ([8]; 125 g ai/ha): 70%
pest or weed control at 31 g/ha ([9]; 31 g ai/ha): 70%
pest or weed control at 125 g/ha ([9]; 125 g ai/ha): 80%
pest or weed control at 31 g/ha ([10]; 31 g ai/ha): 70%
pest or weed control at 125 g/ha ([10]; 125 g ai/ha): 90%
pest or weed control at 31 g/ha (kochia (Kochia scoparia) [11]; 31 g ai/ha): 80%
pest or weed control at 125 g/ha (kochia (Kochia scoparia) [11]; 125 g ai/ha): 90%
pest or weed control at 31 g/ha ([12]; 31 g ai/ha): 0%
pest or weed control at 125 g/ha ([12]; 125 g ai/ha): 10%
pest or weed control at 31 g/ha ([13]; 31 g ai/ha, 0 to 100 scale (0 no effect, 100 complete control), read-out: Barnyardgrass plant response rating): 10%
pest or weed control at 125 g/ha ([13]; 125 g ai/ha, 0 to 100 scale, read-out: Plant response rating, Barnyardgrass): 80%
pest or weed control at 31 g/ha ([14]; 31 g ai/ha): 0%
pest or weed control at 125 g/ha ([14]; 125 g ai/ha): 50%
pest or weed control at 31 g/ha ([15]; 31 g ai/ha): 100%
pest or weed control at 125 g/ha ([15]; 125 g ai/ha): 100%
pest or weed control at 16 g/ha ([16]; 16 g ai/ha): 5%
pest or weed control at 31 g/ha ([16]; 31 g ai/ha): 5%
pest or weed control at 62 g/ha ([16]; 62 g ai/ha): 5%
pest or weed control at 125 g/ha ([16]; 125 g ai/ha): 25%
pest or weed control at 31 g/ha ([17]; 31 g ai/ha): 95%
pest or weed control at 62 g/ha ([17]; 62 g ai/ha): 90%
pest or weed control at 125 g/ha ([17]; 125 g ai/ha): 95%
pest or weed control at 16 g/ha ([18]; 16 g ai/ha): 80%
pest or weed control at 31 g/ha ([18]; 31 g ai/ha): 80%
pest or weed control at 62 g/ha ([18]; 62 g ai/ha): 85%
pest or weed control at 125 g/ha ([18]; 125 g ai/ha): 85%
pest or weed control at 250 g/ha [19]: 30%
pest or weed control at 250 g/ha [20]: 0%
pest or weed control at 250 g/ha [21]: 30%
plant injury at 250 g/ha (rice (Oryza sativa)): 0%
